Blank lines part the entries; values can stand above or below the compound they belong to.
How the values were obtained:
[1] = target: T1, TrkA (Homo sapiens, UniProt P04629); test: Kinase inhibitory activity (33P-ATP, filtration-binding method, Reaction Biology Corp.); type: biochemical; conditions: read-out: Half maximal inhibitory concentration IC50 for kinases, TrkA
T1 construct: purchased Reaction Biology Corp
Description: (§1) The mixture was incubated at room temperature for 20 minutes, added with ^33P-ATP at a certain concentration to start the reaction, and then incubated at room temperature for 120 minutes. Finally, the radioactivity of the reactant was detected by the filtration-binding method. The final kinase activity was expressed as the ratio of the remaining kinase activity in the test sample to the kinase activity of the DMSO control. The dose-response curves were fitted and IC50 values were calculated by GraphPad software.

[2] = Pharmacokinetic test of compounds in mice (plasma, LC/MS/MS); type: in vivo, male CD-1 mice
Description: (§2) Experimental purpose: male CD-1 mice aged 7-9 weeks were selected as test animals, and the drug concentrations of the compounds in plasma at different time points after single intravenous injection (IV) and intragastric administration (PO) of the compounds were measured by an LC/MS/MS method, so that the pharmacokinetic behavior of the compounds disclosed herein in mice was studied, and the pharmacokinetic characteristic of the compounds was evaluated.
(§3) Drug preparation: the compounds were all prepared into clear solution by taking 5% DMSO+10% solutol+85% water as vehicle, and were used for administration in IV and PO groups. The dose of each compound administered was: IV, 3 mg/kg; PO, 10 mg/kg.

[3] = target: T2, Ros1 (Homo sapiens, UniProt P08922); test: Kinase inhibitory activity (33P-ATP, filtration-binding method, Reaction Biology Corp.); type: biochemical; conditions: read-out: Half maximal inhibitory concentration IC50 for kinases, Ros1
T2 construct: purchased Reaction Biology Corp
T2 sequence (P08922 28-2347): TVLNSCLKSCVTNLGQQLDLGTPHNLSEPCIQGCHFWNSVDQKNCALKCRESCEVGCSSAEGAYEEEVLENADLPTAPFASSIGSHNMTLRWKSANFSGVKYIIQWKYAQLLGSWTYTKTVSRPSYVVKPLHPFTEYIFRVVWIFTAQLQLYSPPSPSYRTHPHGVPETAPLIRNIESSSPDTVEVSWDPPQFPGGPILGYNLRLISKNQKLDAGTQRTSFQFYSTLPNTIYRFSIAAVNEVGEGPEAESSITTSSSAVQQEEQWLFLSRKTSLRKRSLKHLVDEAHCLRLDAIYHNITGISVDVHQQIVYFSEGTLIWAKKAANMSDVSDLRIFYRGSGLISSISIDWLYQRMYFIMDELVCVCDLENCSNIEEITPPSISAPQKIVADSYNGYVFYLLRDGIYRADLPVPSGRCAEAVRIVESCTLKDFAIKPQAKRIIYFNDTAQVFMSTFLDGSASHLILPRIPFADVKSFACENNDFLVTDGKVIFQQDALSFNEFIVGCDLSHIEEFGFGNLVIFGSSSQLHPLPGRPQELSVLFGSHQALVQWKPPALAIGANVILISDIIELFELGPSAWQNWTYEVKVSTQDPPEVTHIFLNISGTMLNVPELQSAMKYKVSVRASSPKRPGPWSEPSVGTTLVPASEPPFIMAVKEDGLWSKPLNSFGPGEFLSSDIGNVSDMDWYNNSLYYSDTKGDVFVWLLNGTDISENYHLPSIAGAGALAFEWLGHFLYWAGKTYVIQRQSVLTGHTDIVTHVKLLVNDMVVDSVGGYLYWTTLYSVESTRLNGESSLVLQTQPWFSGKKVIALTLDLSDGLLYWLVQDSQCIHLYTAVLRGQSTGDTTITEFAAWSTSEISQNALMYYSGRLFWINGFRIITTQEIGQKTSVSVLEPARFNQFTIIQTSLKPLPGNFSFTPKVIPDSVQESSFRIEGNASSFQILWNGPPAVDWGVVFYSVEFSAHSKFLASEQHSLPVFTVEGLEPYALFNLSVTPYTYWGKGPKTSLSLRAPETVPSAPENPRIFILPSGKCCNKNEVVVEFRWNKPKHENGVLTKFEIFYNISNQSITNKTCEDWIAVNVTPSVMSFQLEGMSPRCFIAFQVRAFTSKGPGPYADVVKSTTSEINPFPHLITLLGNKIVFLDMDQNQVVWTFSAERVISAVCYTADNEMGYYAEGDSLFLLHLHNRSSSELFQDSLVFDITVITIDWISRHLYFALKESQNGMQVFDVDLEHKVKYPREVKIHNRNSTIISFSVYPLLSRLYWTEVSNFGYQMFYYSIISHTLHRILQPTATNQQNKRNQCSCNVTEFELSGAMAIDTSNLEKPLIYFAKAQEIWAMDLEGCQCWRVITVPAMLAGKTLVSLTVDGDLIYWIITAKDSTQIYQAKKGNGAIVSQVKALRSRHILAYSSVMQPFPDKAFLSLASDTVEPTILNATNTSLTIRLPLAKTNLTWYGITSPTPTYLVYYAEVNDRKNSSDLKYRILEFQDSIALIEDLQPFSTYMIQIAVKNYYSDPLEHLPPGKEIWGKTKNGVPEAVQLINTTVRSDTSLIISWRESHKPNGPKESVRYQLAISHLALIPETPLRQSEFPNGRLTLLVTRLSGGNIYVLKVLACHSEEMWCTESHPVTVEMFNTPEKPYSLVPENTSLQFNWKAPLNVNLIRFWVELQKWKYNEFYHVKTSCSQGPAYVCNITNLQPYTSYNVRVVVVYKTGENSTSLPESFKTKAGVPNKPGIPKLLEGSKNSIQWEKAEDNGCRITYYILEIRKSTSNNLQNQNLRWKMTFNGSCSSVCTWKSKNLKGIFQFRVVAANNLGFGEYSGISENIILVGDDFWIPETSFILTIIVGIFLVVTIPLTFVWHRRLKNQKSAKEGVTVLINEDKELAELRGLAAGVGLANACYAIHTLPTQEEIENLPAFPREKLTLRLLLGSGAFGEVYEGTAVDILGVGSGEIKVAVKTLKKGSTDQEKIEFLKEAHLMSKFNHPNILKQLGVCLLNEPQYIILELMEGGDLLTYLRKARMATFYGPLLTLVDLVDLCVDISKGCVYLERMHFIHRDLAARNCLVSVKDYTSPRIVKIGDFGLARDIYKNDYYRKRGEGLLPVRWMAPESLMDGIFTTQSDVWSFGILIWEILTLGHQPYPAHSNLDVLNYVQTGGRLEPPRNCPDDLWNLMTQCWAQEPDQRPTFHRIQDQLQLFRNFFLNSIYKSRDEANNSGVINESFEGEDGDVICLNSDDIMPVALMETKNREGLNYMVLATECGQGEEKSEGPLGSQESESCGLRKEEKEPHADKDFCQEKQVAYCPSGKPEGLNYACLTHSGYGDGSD
Description: as §1

[4] = target: T3, TrkA-G667C (Homo sapiens, UniProt P04629, G667C); test: as above; type: biochemical; conditions: read-out: Half maximal inhibitory concentration IC50 for kinases, TrkA-G667C
T3 construct: purchased Reaction Biology Corp
T3 sequence (P04629 33-796 G667C): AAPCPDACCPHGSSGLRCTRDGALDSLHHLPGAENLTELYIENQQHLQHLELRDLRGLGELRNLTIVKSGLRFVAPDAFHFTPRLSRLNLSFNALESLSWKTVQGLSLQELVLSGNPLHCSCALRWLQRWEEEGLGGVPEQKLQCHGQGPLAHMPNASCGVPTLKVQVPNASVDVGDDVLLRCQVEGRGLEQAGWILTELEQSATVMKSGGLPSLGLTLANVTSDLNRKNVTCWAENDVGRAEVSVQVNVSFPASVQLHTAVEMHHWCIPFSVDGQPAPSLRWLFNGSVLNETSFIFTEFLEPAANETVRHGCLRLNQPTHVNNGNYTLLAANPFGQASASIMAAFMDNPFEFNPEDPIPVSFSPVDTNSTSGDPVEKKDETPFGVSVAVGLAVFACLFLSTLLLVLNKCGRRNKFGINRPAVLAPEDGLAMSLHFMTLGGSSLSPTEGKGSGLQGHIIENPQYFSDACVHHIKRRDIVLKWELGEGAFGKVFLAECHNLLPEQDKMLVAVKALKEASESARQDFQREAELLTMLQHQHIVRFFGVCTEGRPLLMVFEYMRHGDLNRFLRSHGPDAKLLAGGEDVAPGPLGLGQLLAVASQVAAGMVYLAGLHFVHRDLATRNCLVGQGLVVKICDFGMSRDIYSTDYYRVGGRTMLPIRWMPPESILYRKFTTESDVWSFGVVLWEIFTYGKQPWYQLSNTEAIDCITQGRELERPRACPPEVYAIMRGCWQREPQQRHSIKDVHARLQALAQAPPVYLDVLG
Description: as §1

[5] = target: T4, ALK (Homo sapiens, UniProt Q9UM73); test: as above; type: biochemical; conditions: read-out: Half maximal inhibitory concentration IC50 for kinases, ALK
T4 construct: purchased Reaction Biology Corp
Description: as §1

[6] = target: T5, TrkA-G595R (Homo sapiens, UniProt P04629, G595R); test: as above; type: biochemical; conditions: read-out: Half maximal inhibitory concentration IC50 for kinases, TrkA-G595R
T5 construct: purchased Reaction Biology Corp
T5 sequence (P04629 33-796 G595R): as the sequence (P04629 33-796 G667C) above, with G563R, C635G counted along it
Description: as §1

[7] = target: T6, TrkC (Homo sapiens, UniProt Q16288); test: as above; type: biochemical; conditions: read-out: Half maximal inhibitory concentration IC50 for kinases, TrkC
T6 construct: purchased Reaction Biology Corp
T6 sequence (Q16288 32-839): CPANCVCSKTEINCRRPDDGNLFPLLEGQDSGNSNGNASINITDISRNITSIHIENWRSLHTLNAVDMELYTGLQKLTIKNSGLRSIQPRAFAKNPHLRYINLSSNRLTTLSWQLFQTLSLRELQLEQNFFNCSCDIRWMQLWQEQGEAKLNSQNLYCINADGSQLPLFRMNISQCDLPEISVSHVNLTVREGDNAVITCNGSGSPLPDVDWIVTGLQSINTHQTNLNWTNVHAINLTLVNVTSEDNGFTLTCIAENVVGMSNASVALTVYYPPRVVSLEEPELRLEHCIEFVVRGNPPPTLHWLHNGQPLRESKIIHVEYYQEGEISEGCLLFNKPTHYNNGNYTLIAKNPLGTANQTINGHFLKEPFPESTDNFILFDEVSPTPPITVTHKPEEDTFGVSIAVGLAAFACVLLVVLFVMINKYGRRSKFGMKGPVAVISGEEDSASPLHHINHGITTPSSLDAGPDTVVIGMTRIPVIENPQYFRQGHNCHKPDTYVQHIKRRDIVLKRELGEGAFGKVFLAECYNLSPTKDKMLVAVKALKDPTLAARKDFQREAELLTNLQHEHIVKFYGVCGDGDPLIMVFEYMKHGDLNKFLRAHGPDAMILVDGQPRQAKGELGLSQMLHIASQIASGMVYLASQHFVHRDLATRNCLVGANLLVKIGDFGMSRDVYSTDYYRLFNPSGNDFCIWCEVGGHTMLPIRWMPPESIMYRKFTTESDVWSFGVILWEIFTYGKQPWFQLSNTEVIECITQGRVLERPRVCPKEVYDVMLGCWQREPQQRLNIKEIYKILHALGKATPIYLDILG
Description: as §1

[8] = Pharmacokinetic test of compounds in rats (plasma, LC/MS/MS); type: in vivo, male SD rats
Description: as §2, with “SD rats” for “CD-1 mice”, “rats” for “mice”
as §3

[9] = target: T7, BaF3 ETV6-NTRK3-G623R (Homo sapiens, UniProt Q16288, G623R, cells depend on it); test: Inhibitory activity against cell proliferation (CellTiter-Glo, 72 hours); type: cell-based; conditions: read-out: Half maximal inhibitory concentration IC50 of cells, BaF3 ETV6-NTRK3-G623R
T7 construct: fused on or other part: N-terminal part of ETV6 (TEL) as fusion partner (part of the key); P41212 (Transcription factor ETV6)
Description: (§4) Adenosine Triphosphate (ATP) is an energy carrier commonly used in various life activities in nature, and is the minimum unit for energy storage and transfer. The CellTiter-Glo™ cell viability assay kit uses luciferase as an assay agent, which requires the involvement of ATP in luminescence. The CellTiter-Glo™ reagent is added into cell culture medium to measure the luminescence value. The luminescence signal is directly proportional to the amount of ATP in the system, and the ATP is positively correlated with the number of viable cells. Therefore, the proliferation of cells can be detected by detecting the ATP content using the CellTiter-Glo kit. In this test, the cell lines used are Ba/F3 LMNA-NTRK1-WT, Ba/F3 LMNA-NTRK1-F589L, BaF3 LMNA-NTRK1-G595R, BaF3 LMNA-NTRK1-G667A, BaF3 ETV6-NTRK3-WT, BaF3 ETV6-NTRK3-G623R, and Ba/F3 SLC34A2-ROS1-WT stable cell strains, 5000 cells/well.
(§5) a) Cells in the logarithmic growth phase were collected and counted using a […]. The cell viability was detected by the trypan blue exclusion method, and the cell viability was kept over 90%.
(§6) b) The cell concentration was adjusted; 90 μL of the cell suspension was added to a 96-well plate.
c) Cells in the 96-well plate were incubated overnight at 37° C. with 5% CO2 and 95% humidity.
(§7) a) A 10-fold compound solution was prepared, with the highest concentration being 10 μM (a total of 9 concentrations, 3-fold dilution). 10 μL of compound solution was added to each well of a 96-well plate inoculated with cells, and three duplicate wells were set for each compound concentration.
b) The cells in the 96-well plate added with compound were incubated for 72 hours at 37° C. with 5% CO2 and 95% humidity, followed by the CTG (CellTiter-Glo) analysis.
(§8) a) The CTG reagent was thawed and the cell plate was equilibrated to room temperature for 30 minutes.
(§9) b) An equal volume of CTG solution was added to each well.
(§10) c) The plate was shaken on an orbital shaker for 5 minutes to lyse the cells.
(§11) d) The cell plate was placed at room temperature for 20 minutes to stabilize the luminescence signal.
(§12) e) The luminescence value was read.
(§13) The data were analyzed using GraphPad Prism 5.0 software, fitted with nonlinear S-curve regression to give dose-response curves, and IC50 values were calculated therefrom.

[10] = target: T8, BaF3 LMNA-NTRK1-G667A (Homo sapiens, UniProt P04629, G667A, cells depend on it); test: as above; type: cell-based; conditions: read-out: Half maximal inhibitory concentration IC50 of cells, BaF3 LMNA-NTRK1-G667A
T8 construct: fused on or other part: N-terminal part of LMNA as fusion partner (part of the key); P02545 (Prelamin-A/C)
T8 sequence (P04629 whole entry G667A, the tested form may be a part): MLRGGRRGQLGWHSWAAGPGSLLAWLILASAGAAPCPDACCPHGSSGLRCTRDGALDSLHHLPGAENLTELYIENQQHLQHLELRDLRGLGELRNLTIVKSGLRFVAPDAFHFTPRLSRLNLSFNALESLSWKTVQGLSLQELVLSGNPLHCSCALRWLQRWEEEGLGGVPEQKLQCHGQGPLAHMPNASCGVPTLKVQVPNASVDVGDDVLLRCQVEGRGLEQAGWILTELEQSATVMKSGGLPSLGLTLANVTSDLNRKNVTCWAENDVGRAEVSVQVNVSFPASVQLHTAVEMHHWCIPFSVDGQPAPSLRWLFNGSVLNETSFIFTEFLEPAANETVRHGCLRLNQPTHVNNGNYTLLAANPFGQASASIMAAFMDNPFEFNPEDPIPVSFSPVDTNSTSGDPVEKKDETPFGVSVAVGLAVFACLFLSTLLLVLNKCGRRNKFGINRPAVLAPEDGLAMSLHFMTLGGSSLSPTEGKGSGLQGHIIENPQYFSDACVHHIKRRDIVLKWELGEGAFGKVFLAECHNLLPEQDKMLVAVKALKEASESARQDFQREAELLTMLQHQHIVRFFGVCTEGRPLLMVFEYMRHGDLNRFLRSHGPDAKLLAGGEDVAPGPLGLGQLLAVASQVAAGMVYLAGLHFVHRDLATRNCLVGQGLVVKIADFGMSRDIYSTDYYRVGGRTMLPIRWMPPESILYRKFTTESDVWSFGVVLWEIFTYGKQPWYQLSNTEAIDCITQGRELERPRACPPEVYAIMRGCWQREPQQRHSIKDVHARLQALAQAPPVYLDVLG
Description: as §4, with “kit.” for “kit. In this test, the cell lines used are Ba/F3 LMNA-NTRK1-WT, Ba/F3 LMNA-NTRK1-F589L, BaF3 LMNA-NTRK1-G595R, BaF3 LMNA-NTRK1-G667A, BaF3 ETV6-NTRK3-WT, BaF3 ETV6-NTRK3-G623R, and Ba/F3 SLC34A2-ROS1-WT stable cell strains, 5000 cells/well.”
as §5, §6, §7, §8, §9, §10, §11, §12, §13

[11] = target: T9, Ba/F3 LMNA-NTRK1-WT (Homo sapiens, UniProt P04629); test: as above; type: cell-based; conditions: read-out: Half maximal inhibitory concentration IC50 of cells, Ba/F3 LMNA-NTRK1-WT
T9 construct: fused on or other part: N-terminal part of LMNA as fusion partner (part of the key); P02545 (Prelamin-A/C)
T9 sequence (P04629 whole entry, change not shown, the tested form may be a part): as the sequence (P04629 whole entry G667A, the tested form may be a part) above, with A667G counted along it
Description: as §4, with “kit.” for “kit. In this test, the cell lines used are Ba/F3 LMNA-NTRK1-WT, Ba/F3 LMNA-NTRK1-F589L, BaF3 LMNA-NTRK1-G595R, BaF3 LMNA-NTRK1-G667A, BaF3 ETV6-NTRK3-WT, BaF3 ETV6-NTRK3-G623R, and Ba/F3 SLC34A2-ROS1-WT stable cell strains, 5000 cells/well.”
as §5, §6, §7, §8, §9, §10, §11, §12, §13

[12] = target: T10, BaF3 LMNA-NTRK1-G595R (Homo sapiens, UniProt P04629, G595R, cells depend on it); test: as above; type: cell-based; conditions: read-out: Half maximal inhibitory concentration IC50 of cells, BaF3 LMNA-NTRK1-G595R
T10 construct: fused on or other part: N-terminal part of LMNA as fusion partner (part of the key); P02545 (Prelamin-A/C)
T10 sequence (P04629 whole entry G595R, the tested form may be a part): as the sequence (P04629 whole entry G667A, the tested form may be a part) above, with G595R, A667G counted along it
Description: as §4, with “kit.” for “kit. In this test, the cell lines used are Ba/F3 LMNA-NTRK1-WT, Ba/F3 LMNA-NTRK1-F589L, BaF3 LMNA-NTRK1-G595R, BaF3 LMNA-NTRK1-G667A, BaF3 ETV6-NTRK3-WT, BaF3 ETV6-NTRK3-G623R, and Ba/F3 SLC34A2-ROS1-WT stable cell strains, 5000 cells/well.”
as §5, §6, §7, §8, §9, §10, §11, §12, §13

[13] = target: T11, Ba/F3 LMNA-NTRK1-F589L (Homo sapiens, UniProt P04629, F589L, cells depend on it); test: as above; type: cell-based; conditions: read-out: Half maximal inhibitory concentration IC50 of cells, Ba/F3 LMNA-NTRK1-F589L
T11 construct: fused on or other part: N-terminal part of LMNA as fusion partner (part of the key); P02545 (Prelamin-A/C)
T11 sequence (P04629 whole entry F589L, the tested form may be a part): as the sequence (P04629 whole entry G667A, the tested form may be a part) above, with F589L, A667G counted along it
Description: as §4, with “kit.” for “kit. In this test, the cell lines used are Ba/F3 LMNA-NTRK1-WT, Ba/F3 LMNA-NTRK1-F589L, BaF3 LMNA-NTRK1-G595R, BaF3 LMNA-NTRK1-G667A, BaF3 ETV6-NTRK3-WT, BaF3 ETV6-NTRK3-G623R, and Ba/F3 SLC34A2-ROS1-WT stable cell strains, 5000 cells/well.”
as §5, §6, §7, §8, §9, §10, §11, §12, §13

[14] = target: T12, BaF3 ETV6-NTRK3-WT (Homo sapiens, UniProt Q16288); test: as above; type: cell-based; conditions: read-out: Half maximal inhibitory concentration IC50 of cells, BaF3 ETV6-NTRK3-WT
T12 construct: fused on or other part: N-terminal part of ETV6 (TEL) as fusion partner (part of the key); P41212 (Transcription factor ETV6)
Description: as §4, with “kit.” for “kit. In this test, the cell lines used are Ba/F3 LMNA-NTRK1-WT, Ba/F3 LMNA-NTRK1-F589L, BaF3 LMNA-NTRK1-G595R, BaF3 LMNA-NTRK1-G667A, BaF3 ETV6-NTRK3-WT, BaF3 ETV6-NTRK3-G623R, and Ba/F3 SLC34A2-ROS1-WT stable cell strains, 5000 cells/well.”
as §5, §6, §7, §8, §9, §10, §11, §12, §13

[15] = PO, 10 mg/kg, read-out: Peak concentration Cmax

T1 sequence (P04629 33-796): as the sequence (P04629 33-796 G667C) above, with C635G counted along it

IC50 [1]: > 1000 nM
SMILES: O=C1NC2(CC2)COc2ncc(F)cc2[C@@H]2CCOCCN2c2ccn3ncc1c3n2 [WX009B]

IC50 [1]: 441 nM
SMILES: C[C@H]1CNC(=O)c2cnn3ccc(nc23)N2CCOC[C@H]2c2cc(F)cnc2O1 [WX004A]

Apparent clearance Cl ([2]; IV, 3 mg/kg): 8.14 mL/min/kg | Apparent volume of distribution Vd ([2]; IV, 3 mg/kg): 0.60 L/kg | Area under the curve AUC0-last ([2]; IV, 3 mg/kg): 15.393 µM·h | Half-life T1/2 ([2]; IV, 3 mg/kg): 63 min | Area under the curve AUC0-last ([2]; PO, 10 mg/kg): 37.294 µM·h | Bioavailability F % ([2]; PO, 10 mg/kg): 73% | Time to peak Tmax ([2]; PO, 10 mg/kg): 30 min | Cmax [2, 15]: 11.1 µM | IC50 [1]: 2.7 nM | IC50 [3]: 8.1 nM | IC50 [4]: 18.2 nM | IC50 [5]: 134 nM | IC50 [6]: 2.7 nM | IC50 [7]: 0.3 nM | Apparent clearance Cl ([8]; IV, 3 mg/kg): 30.9 mL/min/kg | Apparent volume of distribution Vd ([8]; IV, 3 mg/kg): 1.4 L/kg | Area under the curve AUC0-last ([8]; IV, 3 mg/kg): 4.076 µM·h | Half-life T1/2 ([8]; IV, 3 mg/kg): 36 min | Area under the curve AUC0-last ([8]; PO, 10 mg/kg): 4.715 µM·h | Bioavailability F % ([8]; PO, 10 mg/kg): 35% | Time to peak Tmax ([8]; PO, 10 mg/kg): 48 min | Cmax [8, 15]: 1.77 µM | GI50 [9]: 3.2 nM | GI50 [10]: 3.9 nM | GI50 [11]: 0.8 nM | GI50 [12]: 1.2 nM | GI50 [13]: 37.4 nM | GI50 [14]: 1.5 nM
SMILES: C[C@H]1CNC(=O)c2cnn3ccc(nc23)N2CCOC[C@@H]2c2cc(F)cnc2O1 [WX004B]

More lines, now with the values behind:

SMILES: O=C1NC2(CC2)COc2ccc(F)cc2[C@@H]2CCCCN2c2ccn3ncc1c3n2 [WX002B]
IC50 [1]: 526 nM

SMILES: O=C1NC2(CC2)CNc2ncc(F)cc2C2COCCN2c2ccn3ncc1c3n2 (single isomer, unassigned) [WX010B]
IC50 [1]: > 1000 nM

SMILES: O=C1N[C@@H]2COC[C@@H]2Oc2ncc(F)cc2[C@@H]2COCCN2c2ccn3ncc1c3n2 [WX005B]
IC50 [1]: > 1000 nM

Reference: US20210403485A1, “PYRAZOLOPYRIMIDINE DERIVATIVE AS SELECTIVE TRK INHIBITOR” (SHANDONG LUYE PHARMACEUTICAL CO., LTD., priority 2018, published 2021)
